Assays:
[1] = target: Tyrosine-protein kinase ABL2 (Homo sapiens) (UniProt P42684); details: Compound concentration 1000.0 nM
[2] = target: Activin receptor type-2B (Homo sapiens) (UniProt Q13705); details: Compound concentration 1000.0 nM
[3] = target: Atypical kinase COQ8A, mitochondrial (Homo sapiens) (UniProt Q8NI60); details: Compound concentration 1000.0 nM
[4] = target: Ankyrin repeat and protein kinase domain-containing protein 1 (Homo sapiens) (UniProt Q8NFD2); details: Compound concentration 1000.0 nM
[5] = target: Mitogen-activated protein kinase kinase kinase 6 (Homo sapiens) (UniProt O95382); details: Compound concentration 1000.0 nM
[6] = target: Mitotic checkpoint serine/threonine-protein kinase BUB1 (Homo sapiens) (UniProt O43683); details: Compound concentration 1000.0 nM
[7] = target: Calcium/calmodulin-dependent protein kinase type IV (Homo sapiens) (UniProt Q16566); details: Compound concentration 1000.0 nM
[8] = target: Cyclin-dependent kinase 13 (Homo sapiens) (UniProt Q14004); details: Compound concentration 1000.0 nM
[9] = tested on: Epidermal growth factor receptor (Homo sapiens), P00533 [UNDEFINED MUTATION]; details: Compound concentration 1000.0 nM
[10] = target: Ephrin type-A receptor 2 (Homo sapiens) (UniProt P29317); details: Compound concentration 1000.0 nM
[11] = target: Ephrin type-A receptor 7 (Homo sapiens) (UniProt Q15375); details: Compound concentration 1000.0 nM
[12] = target: Ephrin type-B receptor 6 (Homo sapiens) (UniProt O15197); details: Compound concentration 1000.0 nM
[13] = target: Receptor tyrosine-protein kinase erbB-4 (Homo sapiens) (UniProt Q15303); details: Compound concentration 1000.0 nM
[14] = target: Mitogen-activated protein kinase 7 (Homo sapiens) (UniProt Q13164); details: Compound concentration 1000.0 nM
[15] = target: Tyrosine-protein kinase Fer (Homo sapiens) (UniProt P16591); details: Compound concentration 1000.0 nM
[16] = target: Fibroblast growth factor receptor 1 (Homo sapiens) (UniProt P11362); details: Compound concentration 1000.0 nM
[17] = target: Inhibitor of nuclear factor kappa-B kinase subunit beta (Homo sapiens) (UniProt O14920); details: Compound concentration 1000.0 nM
[18] = target: Inhibitor of nuclear factor kappa-B kinase subunit epsilon (Homo sapiens) (UniProt Q14164); details: Compound concentration 1000.0 nM
[19] = tested on: Mast/stem cell growth factor receptor Kit (Homo sapiens), P10721 [V559D,V654A]; details: Compound concentration 1000.0 nM
[20] = target: Serine/threonine-protein kinase LATS1 (Homo sapiens) (UniProt O95835); details: Compound concentration 1000.0 nM
[21] = target: Leukocyte tyrosine kinase receptor (Homo sapiens) (UniProt P29376); details: Compound concentration 1000.0 nM
[22] = target: Tyrosine-protein kinase Lyn (Homo sapiens) (UniProt P07948); details: Compound concentration 1000.0 nM
[23] = target: Serine/threonine-protein kinase MAK (Homo sapiens) (UniProt P20794); details: Compound concentration 1000.0 nM
[24] = target: MAP kinase-activated protein kinase 2 (Homo sapiens) (UniProt P49137); details: Compound concentration 1000.0 nM
[25] = target: Serine/threonine-protein kinase MARK1 (Homo sapiens) (UniProt Q9P0L2); details: Compound concentration 1000.0 nM
[26] = target: MAP/microtubule affinity-regulating kinase 3 (Homo sapiens) (UniProt P27448); details: Compound concentration 1000.0 nM
[27] = target: Dual specificity mitogen-activated protein kinase kinase 6 (Homo sapiens) (UniProt P52564); details: Compound concentration 1000.0 nM
[28] = target: Macrophage-stimulating protein receptor (Homo sapiens) (UniProt Q04912); details: Compound concentration 1000.0 nM
[29] = target: Serine/threonine-protein kinase Nek7 (Homo sapiens) (UniProt Q8TDX7); details: Compound concentration 1000.0 nM
[30] = target: Mitogen-activated protein kinase 12 (Homo sapiens) (UniProt P53778); details: Compound concentration 1000.0 nM
[31] = target: Serine/threonine-protein kinase PAK 3 (Homo sapiens) (UniProt O75914); details: Compound concentration 1000.0 nM
[32] = target: Cyclin-dependent kinase 18 (Homo sapiens) (UniProt Q07002); details: Compound concentration 1000.0 nM
[33] = target: Platelet-derived growth factor receptor alpha (Homo sapiens) (UniProt P16234); details: Compound concentration 1000.0 nM
[34] = target: Cyclin-dependent kinase 14 (Homo sapiens) (UniProt O94921); details: Compound concentration 1000.0 nM
[35] = target: Phosphatidylinositol 4,5-bisphosphate 3-kinase catalytic subunit alpha isoform (Homo sapiens) (UniProt P42336); details: Compound concentration 1000.0 nM
[36] = target: Protein kinase C eta type (Homo sapiens) (UniProt P24723); details: Compound concentration 1000.0 nM
[37] = target: Serine/threonine-protein kinase D3 (Homo sapiens) (UniProt O94806); details: Compound concentration 1000.0 nM
[38] = target: Serine/threonine-protein kinase SIK3 (Homo sapiens) (UniProt Q9Y2K2); details: Compound concentration 1000.0 nM
[39] = target: Serine/threonine-protein kinase RIO3 (Homo sapiens) (UniProt O14730); details: Compound concentration 1000.0 nM
[40] = target: Rho-associated protein kinase 2 (Homo sapiens) (UniProt O75116); details: Compound concentration 1000.0 nM
[41] = target: Proto-oncogene tyrosine-protein kinase ROS (Homo sapiens) (UniProt P08922); details: Compound concentration 1000.0 nM
[42] = target: Serine/threonine-protein kinase 25 (Homo sapiens) (UniProt O00506); details: Compound concentration 1000.0 nM
[43] = target: Mitogen-activated protein kinase kinase kinase 19 (Homo sapiens) (UniProt Q56UN5); details: Compound concentration 1000.0 nM
[44] = target: D(1A) dopamine receptor (Homo sapiens) (UniProt P21728); details: Compound concentration 10.0 uM
[45] = target: Muscarinic acetylcholine receptor M1 (Homo sapiens) (UniProt P11229); details: Compound concentration 10.0 uM

Chain of MAP/microtubule affinity-regulating kinase 3 (Homo sapiens) (P27448 whole entry, looked up): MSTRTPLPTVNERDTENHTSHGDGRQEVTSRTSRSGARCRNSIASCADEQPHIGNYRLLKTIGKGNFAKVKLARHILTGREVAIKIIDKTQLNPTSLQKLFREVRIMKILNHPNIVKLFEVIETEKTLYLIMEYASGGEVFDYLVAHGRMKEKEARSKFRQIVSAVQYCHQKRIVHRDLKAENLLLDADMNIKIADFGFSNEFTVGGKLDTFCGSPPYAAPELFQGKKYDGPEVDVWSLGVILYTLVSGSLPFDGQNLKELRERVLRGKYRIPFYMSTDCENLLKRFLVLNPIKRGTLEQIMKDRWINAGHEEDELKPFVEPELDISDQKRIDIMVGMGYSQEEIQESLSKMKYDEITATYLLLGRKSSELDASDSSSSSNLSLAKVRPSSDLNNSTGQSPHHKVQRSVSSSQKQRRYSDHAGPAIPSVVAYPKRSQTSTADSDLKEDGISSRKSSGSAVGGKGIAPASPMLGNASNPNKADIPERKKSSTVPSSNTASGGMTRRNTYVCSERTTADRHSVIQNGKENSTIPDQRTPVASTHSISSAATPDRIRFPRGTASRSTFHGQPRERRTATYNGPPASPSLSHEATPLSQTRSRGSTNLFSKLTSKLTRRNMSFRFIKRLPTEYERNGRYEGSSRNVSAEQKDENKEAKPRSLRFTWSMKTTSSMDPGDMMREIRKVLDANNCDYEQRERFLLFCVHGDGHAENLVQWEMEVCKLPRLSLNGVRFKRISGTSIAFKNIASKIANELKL
Chain of Phosphatidylinositol 4,5-bisphosphate 3-kinase catalytic subunit alpha isoform (Homo sapiens) (P42336 whole entry, canonical isoform): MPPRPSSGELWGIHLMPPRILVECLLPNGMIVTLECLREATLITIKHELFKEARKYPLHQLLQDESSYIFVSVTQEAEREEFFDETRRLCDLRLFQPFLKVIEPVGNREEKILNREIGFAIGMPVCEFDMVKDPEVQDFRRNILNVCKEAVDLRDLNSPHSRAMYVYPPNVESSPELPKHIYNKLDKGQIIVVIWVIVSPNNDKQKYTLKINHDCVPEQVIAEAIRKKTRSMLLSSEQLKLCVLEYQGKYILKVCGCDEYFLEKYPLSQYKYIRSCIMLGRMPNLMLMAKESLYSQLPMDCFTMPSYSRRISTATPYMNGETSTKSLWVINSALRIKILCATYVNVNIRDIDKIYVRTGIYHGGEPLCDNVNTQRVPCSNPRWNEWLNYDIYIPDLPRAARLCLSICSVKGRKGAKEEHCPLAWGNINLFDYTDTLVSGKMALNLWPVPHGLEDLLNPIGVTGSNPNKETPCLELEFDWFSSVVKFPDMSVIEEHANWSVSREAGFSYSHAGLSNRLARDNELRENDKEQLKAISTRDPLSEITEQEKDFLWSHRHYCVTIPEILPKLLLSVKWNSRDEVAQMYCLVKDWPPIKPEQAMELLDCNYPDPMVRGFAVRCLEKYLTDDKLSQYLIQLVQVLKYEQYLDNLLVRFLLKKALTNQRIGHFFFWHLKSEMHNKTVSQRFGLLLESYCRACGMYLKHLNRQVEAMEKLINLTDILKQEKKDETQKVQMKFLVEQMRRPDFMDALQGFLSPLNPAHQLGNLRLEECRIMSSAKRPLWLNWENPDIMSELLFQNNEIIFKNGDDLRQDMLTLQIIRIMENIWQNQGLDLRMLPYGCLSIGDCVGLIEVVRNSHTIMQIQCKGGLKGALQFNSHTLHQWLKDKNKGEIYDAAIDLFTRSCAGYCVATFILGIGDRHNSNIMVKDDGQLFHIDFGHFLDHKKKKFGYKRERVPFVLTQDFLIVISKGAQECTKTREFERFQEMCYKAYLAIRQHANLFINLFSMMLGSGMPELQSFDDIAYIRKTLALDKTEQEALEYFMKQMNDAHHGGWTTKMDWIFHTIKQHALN
Chain of Dual specificity mitogen-activated protein kinase kinase 6 (Homo sapiens) (P52564 whole entry): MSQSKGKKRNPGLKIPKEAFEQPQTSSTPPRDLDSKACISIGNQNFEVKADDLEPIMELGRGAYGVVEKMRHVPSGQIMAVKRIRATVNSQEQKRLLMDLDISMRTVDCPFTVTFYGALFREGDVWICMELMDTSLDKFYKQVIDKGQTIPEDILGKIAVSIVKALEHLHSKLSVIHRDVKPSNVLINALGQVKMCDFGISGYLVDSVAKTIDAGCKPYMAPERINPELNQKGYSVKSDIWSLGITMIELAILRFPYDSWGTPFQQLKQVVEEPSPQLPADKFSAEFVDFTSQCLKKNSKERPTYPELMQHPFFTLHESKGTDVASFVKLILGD
Chain of Mitotic checkpoint serine/threonine-protein kinase BUB1 (Homo sapiens) (O43683 whole entry, looked up): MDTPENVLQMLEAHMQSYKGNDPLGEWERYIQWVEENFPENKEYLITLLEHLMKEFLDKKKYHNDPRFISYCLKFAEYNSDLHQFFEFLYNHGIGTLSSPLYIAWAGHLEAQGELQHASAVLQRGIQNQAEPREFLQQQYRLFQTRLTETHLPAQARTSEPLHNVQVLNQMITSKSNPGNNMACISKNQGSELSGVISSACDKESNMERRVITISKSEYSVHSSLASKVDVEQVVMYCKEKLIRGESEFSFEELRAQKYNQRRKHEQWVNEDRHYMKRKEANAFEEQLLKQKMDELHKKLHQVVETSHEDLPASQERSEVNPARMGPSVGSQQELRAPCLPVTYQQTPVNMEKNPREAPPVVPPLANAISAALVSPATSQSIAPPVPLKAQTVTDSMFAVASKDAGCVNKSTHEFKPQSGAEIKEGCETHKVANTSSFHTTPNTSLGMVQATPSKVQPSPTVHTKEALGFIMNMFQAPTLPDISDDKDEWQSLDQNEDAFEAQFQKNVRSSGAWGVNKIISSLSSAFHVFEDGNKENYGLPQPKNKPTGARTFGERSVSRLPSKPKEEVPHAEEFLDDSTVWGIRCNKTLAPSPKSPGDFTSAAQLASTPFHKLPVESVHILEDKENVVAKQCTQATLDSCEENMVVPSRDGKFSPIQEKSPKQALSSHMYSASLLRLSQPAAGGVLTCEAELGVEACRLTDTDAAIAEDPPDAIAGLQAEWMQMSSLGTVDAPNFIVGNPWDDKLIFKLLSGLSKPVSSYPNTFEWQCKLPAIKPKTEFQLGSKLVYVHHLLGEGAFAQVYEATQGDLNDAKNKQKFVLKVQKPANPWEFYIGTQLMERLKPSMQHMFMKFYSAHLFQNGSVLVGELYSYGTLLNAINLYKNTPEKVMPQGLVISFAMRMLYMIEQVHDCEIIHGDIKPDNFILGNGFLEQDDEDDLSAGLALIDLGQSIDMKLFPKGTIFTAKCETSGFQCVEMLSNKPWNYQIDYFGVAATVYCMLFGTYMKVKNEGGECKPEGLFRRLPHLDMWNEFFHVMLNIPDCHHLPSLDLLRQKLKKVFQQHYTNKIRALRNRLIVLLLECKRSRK
Chain of Serine/threonine-protein kinase LATS1 (Homo sapiens) (O95835 whole entry): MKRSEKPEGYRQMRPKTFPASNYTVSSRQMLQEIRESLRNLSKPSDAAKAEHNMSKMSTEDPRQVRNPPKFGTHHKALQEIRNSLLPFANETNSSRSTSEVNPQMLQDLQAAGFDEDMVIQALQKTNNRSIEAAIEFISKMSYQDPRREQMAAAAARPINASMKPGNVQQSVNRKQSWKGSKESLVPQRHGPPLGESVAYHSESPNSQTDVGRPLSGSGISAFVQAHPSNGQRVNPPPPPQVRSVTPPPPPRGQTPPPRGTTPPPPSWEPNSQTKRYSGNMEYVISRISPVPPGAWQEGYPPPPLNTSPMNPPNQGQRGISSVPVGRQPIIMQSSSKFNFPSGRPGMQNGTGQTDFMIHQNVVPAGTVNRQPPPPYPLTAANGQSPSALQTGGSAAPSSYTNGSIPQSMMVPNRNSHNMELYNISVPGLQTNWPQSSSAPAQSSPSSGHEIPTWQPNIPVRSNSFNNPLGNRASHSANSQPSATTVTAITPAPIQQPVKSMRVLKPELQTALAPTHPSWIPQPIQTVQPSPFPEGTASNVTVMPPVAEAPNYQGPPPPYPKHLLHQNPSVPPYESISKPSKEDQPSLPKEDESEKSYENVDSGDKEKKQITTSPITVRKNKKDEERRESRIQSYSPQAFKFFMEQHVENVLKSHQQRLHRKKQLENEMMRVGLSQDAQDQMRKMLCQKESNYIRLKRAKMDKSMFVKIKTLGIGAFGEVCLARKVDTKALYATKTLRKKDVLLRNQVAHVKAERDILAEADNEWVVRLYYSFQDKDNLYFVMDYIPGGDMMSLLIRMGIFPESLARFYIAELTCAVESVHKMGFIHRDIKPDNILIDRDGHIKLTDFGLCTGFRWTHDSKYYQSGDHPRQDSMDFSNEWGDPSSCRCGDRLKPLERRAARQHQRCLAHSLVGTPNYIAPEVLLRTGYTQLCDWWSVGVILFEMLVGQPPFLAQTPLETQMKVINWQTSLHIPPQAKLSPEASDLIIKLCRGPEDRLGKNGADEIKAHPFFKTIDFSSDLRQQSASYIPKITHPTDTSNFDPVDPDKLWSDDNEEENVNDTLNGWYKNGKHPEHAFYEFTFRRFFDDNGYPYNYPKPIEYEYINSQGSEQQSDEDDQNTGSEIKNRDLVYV
Chain of Protein kinase C eta type (Homo sapiens) (P24723 whole entry): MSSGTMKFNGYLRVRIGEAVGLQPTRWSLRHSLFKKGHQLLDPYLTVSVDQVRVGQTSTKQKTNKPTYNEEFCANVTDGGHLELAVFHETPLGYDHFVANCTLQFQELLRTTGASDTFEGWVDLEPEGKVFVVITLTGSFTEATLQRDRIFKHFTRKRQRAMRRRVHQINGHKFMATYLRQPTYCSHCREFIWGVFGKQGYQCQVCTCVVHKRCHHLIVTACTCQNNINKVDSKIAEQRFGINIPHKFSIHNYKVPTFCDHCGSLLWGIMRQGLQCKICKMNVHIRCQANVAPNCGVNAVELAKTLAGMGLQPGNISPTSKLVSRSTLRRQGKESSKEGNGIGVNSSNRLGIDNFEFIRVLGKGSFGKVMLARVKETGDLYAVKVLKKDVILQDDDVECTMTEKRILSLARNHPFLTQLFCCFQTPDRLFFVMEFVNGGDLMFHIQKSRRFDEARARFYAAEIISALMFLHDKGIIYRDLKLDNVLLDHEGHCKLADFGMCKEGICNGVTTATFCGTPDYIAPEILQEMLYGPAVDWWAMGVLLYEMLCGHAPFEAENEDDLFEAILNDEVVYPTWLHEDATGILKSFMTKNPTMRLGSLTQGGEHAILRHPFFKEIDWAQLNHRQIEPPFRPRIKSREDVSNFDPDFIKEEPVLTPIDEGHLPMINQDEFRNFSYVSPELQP

COc1ccc2c(O[C@@H]3C[C@H]4C(=O)N[C@]5(C(=O)O)CC5/C=C\CCCCC[C@H](NC(=O)OC5CCCC5)C(=O)N4C3)cc(-c3csc(NC(=O)C(C)C)n3)nc2c1C (stereo not given in full) [BI 1230]
inactive: residual activity [1] 98% | residual activity [2] 100% | residual activity [3] 100% | residual activity [4] 79% | residual activity [5] 98% | residual activity [6] 96% | residual activity [7] 95% | residual activity [8] 77% | residual activity [9] 98% | residual activity [10] 80% | residual activity [11] 100% | residual activity [12] 89% | residual activity [13] 100% | residual activity [14] 100% | residual activity [15] 100% | residual activity [16] 98% | residual activity [17] 83% | residual activity [18] 82% | residual activity [19] 74% | residual activity [20] 100% | residual activity [21] 100% | residual activity [22] 94% | residual activity [23] 100% | residual activity [24] 60% | residual activity [25] 100% | residual activity [26] 95% | residual activity [27] 100% | residual activity [28] 100% | residual activity [29] 100% | residual activity [30] 91% | residual activity [31] 100% | residual activity [32] 100% | residual activity [33] 84% | residual activity [34] 88% | residual activity [35] 75% | residual activity [36] 100% | residual activity [37] 100% | residual activity [38] 97% | residual activity [39] 100% | residual activity [40] 95% | residual activity [41] 100% | residual activity [42] 100% | residual activity [43] 70% | inhibition [44] 46.3% | inhibition [45] 8.82%

O=C(N[C@H]1CCCCC/C=C\C2C[C@@]2(C(=O)O)NC(=O)[C@@H]2C[C@@H](Oc3ccncc3)CN2C1=O)OC1CCCC1 (stereo not given in full) [BI 1675]
inactive: residual activity [1] 100% | residual activity [2] 100% | residual activity [3] 90% | residual activity [4] 100% | residual activity [5] 100% | residual activity [6] 100% | residual activity [7] 90% | residual activity [8] 90% | residual activity [9] 78% | residual activity [10] 71% | residual activity [11] 100% | residual activity [12] 89% | residual activity [13] 100% | residual activity [14] 90% | residual activity [15] 100% | residual activity [16] 100% | residual activity [17] 91% | residual activity [18] 100% | residual activity [19] 63% | residual activity [20] 99% | residual activity [21] 99% | residual activity [22] 87% | residual activity [23] 82% | residual activity [24] 89% | residual activity [25] 100% | residual activity [26] 100% | residual activity [27] 94% | residual activity [28] 97% | residual activity [29] 100% | residual activity [30] 100% | residual activity [31] 88% | residual activity [32] 92% | residual activity [33] 99% | residual activity [34] 91% | residual activity [35] 98% | residual activity [36] 91% | residual activity [37] 82% | residual activity [38] 95% | residual activity [39] 100% | residual activity [40] 100% | residual activity [41] 92% | residual activity [42] 97% | residual activity [43] 93% | inhibition [44] -4.18% | inhibition [45] 14.1%

Source: ChEMBL document CHEMBL4507284, “Data for DCP probe BI-1230” (2021)
